The values that follow come from US20220211478A1, “SURGICAL SYSTEM AND METHODS OF USE” (priority 2021, published 2022).

Molecules are shown by their SMILES.

Data set [1] has as its system myofibroblast formation. The note with it: capsular contracture with breast implants; Ajmal et al. (2003); cited from earlier work.
Data set [2] has as its system fibrinolysis. The experiment in a line: prevention / reversal of fibrinolysis. The settings on record: relative to doses of the non-GLP acute porcine study. The text has this:
(§1) However, in some embodiments, however, higher doses of tranexamic acid are used for topical applications to account for tranexamic acid being widely distributed throughout the extracellular and intracellular compartments when given preoperatively.

The conditions of data set [3]: in vivo.
Excerpt: as §1

Turning to `O=S(=O)([O-])CCS.[Na+]` [MESNA, sodium 2-mercaptoethane sulfonate], the “effect on myofibroblast formation” value in data set [1] is recorded as “diminish myofibroblast formation”.

As to `NC[C@H]1CC[C@H](C(=O)O)CC1` [tranexamic acid, trans-4-(aminomethyl)cyclohexanecarboxylic acid], in data set [2], the “dose effective in reversing fibrinolysis” value is “one tenth of the doses used in the non-GLP acute porcine study”. In addition, the “time to reach plasma concentrations” value in data set [3] fell in the range of 5 to 15 min.
